Literature values in publication PMC4067310, “From Pan-Reactive KV7 Channel Opener to Subtype Selective Opener/Inhibitor by Addition of a Methyl Group” (PLoS ONE, 2014).
Positions count from the first letter of the chain named.

Legend:
KV7.4 = target: T1, KV7.4 (Homo sapiens, UniProt P56696); set-up: method as in PMID 20011514; conditions: +40 mV; cited from earlier work
T1 construct: expressed in transfected cells; host or cells: Xenopus laevis oocytes injected with cRNA (pGEM-HE vector)
T1 sequence (P56696 1-695): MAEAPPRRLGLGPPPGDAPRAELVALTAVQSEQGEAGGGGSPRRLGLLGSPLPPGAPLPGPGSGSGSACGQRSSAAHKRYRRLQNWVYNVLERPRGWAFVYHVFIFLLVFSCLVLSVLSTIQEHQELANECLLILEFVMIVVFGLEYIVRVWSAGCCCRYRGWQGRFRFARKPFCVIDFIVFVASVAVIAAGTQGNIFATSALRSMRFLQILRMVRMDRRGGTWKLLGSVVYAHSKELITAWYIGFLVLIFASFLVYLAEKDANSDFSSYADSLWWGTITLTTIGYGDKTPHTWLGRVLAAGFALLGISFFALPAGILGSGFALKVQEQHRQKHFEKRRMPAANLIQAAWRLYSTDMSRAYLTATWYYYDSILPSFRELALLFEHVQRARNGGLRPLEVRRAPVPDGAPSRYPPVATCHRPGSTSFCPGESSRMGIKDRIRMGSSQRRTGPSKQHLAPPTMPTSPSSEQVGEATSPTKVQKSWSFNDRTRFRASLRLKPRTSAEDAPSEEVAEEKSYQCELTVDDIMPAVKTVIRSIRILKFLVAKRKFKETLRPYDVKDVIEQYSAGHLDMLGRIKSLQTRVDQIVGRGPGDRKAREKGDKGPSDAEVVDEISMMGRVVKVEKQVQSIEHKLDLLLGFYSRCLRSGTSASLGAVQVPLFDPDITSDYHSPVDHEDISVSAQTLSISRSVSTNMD

KV7.4-W242L = target: T2, KV7.4-W242L (Homo sapiens, UniProt P56696, W242L); conditions: cited from earlier work
T2 construct: expressed in transfected cells; host or cells: Xenopus laevis oocytes injected with cRNA (pGEM-HE vector)
T2 sequence (P56696 1-695 W242L): T1 sequence (P56696 1-695) with W242L

KV7.2-W236L = target: T3, KV7.2-W236L (Homo sapiens, UniProt O43526, W236L); set-up: method as in PMID 20011514; conditions: all activating effects lost; cited from earlier work
T3 construct: expressed in transfected cells; host or cells: Xenopus laevis oocytes injected with cRNA (pGEM-HE vector)
T3 sequence (O43526 whole entry W236L): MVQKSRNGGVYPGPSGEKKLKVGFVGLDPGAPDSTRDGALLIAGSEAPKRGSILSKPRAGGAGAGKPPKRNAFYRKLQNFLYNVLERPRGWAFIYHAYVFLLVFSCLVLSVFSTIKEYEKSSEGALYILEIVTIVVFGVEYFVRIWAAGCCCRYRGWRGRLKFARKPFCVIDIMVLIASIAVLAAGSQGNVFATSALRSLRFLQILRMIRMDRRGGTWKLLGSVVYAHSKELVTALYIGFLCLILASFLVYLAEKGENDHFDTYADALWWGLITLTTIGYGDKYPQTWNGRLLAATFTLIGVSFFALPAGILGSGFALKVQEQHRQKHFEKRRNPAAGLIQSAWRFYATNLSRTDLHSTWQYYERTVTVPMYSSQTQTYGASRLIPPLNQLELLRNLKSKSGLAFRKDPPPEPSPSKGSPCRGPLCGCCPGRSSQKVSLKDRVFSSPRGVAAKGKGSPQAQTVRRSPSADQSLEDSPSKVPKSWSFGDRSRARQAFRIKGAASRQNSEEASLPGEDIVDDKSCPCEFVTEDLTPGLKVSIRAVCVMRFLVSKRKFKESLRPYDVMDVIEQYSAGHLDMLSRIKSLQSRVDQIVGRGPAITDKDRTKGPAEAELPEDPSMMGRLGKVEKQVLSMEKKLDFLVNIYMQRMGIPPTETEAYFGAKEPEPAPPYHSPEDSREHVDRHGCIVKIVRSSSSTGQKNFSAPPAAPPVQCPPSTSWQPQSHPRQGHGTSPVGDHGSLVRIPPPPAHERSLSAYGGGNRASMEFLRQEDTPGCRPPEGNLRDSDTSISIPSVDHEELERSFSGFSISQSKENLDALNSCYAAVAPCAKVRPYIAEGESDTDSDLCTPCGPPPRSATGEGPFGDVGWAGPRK

C[C@H](NC(=O)/C=C/c1ccccc1F)c1ccc2c(c1)N(CC1CC1)CCO2 [(S)-2]
efficacy, current amplitude % of control (KV7.4): 1927 % of control | effect on KV7.4-W242L (KV7.4-W242L): fully insensitive | effect on KV7.2-W236L (KV7.2-W236L): purely inhibitory
